One molecule from patent publication US5962534A, “Regulating gene expression using retinoids with CH2 OH or related groups at the side chain terminal position” (Cornell Research Foundation, Inc., priority 1997, dated 1999) can be followed below.

Assay [1] has as its target T1, RAR-β (Mus musculus, UniProt P22605).
T1 sequence (P22605 1-448 isoform P22605-3): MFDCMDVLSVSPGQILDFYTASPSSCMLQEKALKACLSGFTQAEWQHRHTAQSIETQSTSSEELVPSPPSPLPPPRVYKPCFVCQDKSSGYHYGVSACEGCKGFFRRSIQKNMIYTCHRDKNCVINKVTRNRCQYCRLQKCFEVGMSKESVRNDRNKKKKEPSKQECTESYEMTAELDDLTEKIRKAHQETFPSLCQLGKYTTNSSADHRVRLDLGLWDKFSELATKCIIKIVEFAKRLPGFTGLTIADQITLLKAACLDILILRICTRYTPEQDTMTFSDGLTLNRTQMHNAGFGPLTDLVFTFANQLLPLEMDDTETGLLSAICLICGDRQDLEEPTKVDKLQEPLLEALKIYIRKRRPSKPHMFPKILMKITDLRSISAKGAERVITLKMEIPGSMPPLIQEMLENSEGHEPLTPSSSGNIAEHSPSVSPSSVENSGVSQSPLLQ
In words: Competitive binding of 3H-all-trans-retinoic acid to RAR-β.
Experimental: Retinoids were assayed for their ability to bind members of the family of the retinoic acid receptors, the RARs, as follows:
COS-1 cells were transfected by DEAE-dextran with pSG5 expression vectors containing cDNAs for mouse RARs α, β, or γ or RXRs α, β, or γ. […] Nucleosol or cytosol fractions were prepared as described in Nervi, C., et al (30) and Nervi, C., et al (31) and stored at -70° C. until use. Aliquots of nucleosol or cytosol were incubated in nuclei lysis buffer as described in Nervi, C., et al (30) with tritiated ligands for 4 h at 4° C. […] For competitive binding assays, the incubations were performed with increasing concentrations of unlabeled competing ligand and a fixed concentration of the radioligand (10 nM ^3 H-retinoic acid). In saturation kinetic studies, incubations were performed in the presence of increasing concentrations of the indicated radioligand. For all binding assays, bound was separated from free radioactivity as described in Levin, A. A., et al (29).

Assay [2] concerns acute promyelocytic leukemia. In words: Treatment of acute promyelocytic leukemia patients. Format: in vivo, human. Particulars: oral, 100 mg/square meter per day. The method, then: Patients with morphologic diagnostic criteria for acute promyelocytic leukemia (M3 or M3 variant subtype) by karyotyping or PCR analysis, including the […] (q22; q12-21) translocation, are treated with oral all-trans-4-oxo-retinol at a dose of 100 mg/square meter of body surface area per day. The drug is formulated in soft gelatin capsules which are administered once or twice a day to provide the dose as stated. The drug is administered for 40 to 60 days until remission induction occurs as indicated by normal karyotype, disappearance of coagulation abnormalities (e.g., increased platelet count and plasma fibrinogen level), observation of differentiation of cancer cells and the appearance of mature granulocytic markers in cell surface immunophenotyping, as indicated by reduced number of cells expressing CD33 and greater portion of cells expressing CD16. Patients with newly diagnosed disease then receive all-trans-4-oxo-retinol for 30 days after remission induction; then, either conventional consolidation therapy (e.g., cytosine arabinoside) or continued treatment with all-trans-4-oxo-retinol alone is continued. During remission induction, liver function tests are performed and serum cholesterol and triglycerides are measured twice a week and bone marrow aspiration is performed once a week until complete remission or failure is documented.

One may read the IC50 as the concentration needed to halve the response being measured. Read a low IC50 as greater potency. In assay [1], `CC1=C(/C=C/C(C)=C/C=C/C(C)=C/CO)C(C)(C)CCC1=O` [4-oxo-retinol, all-trans-4-oxo-retinol] yielded an IC50 of 420 ± 110 nM. In assay [2], the “outcome of treatment in acute promyelocytic leukemia” value is recorded as “Long term cures are considered to be obtainable”.
